Laboratory results from the NIST ThermoML archive (doi:10.1021/je400667c).
Numbers after ± are expanded uncertainties.

Assay: mn = molality of the nth substance listed, in mol/kg
Conditions: for electrical conductivity / mass density: 100 kPa, Liquid; for electrical conductivity: Frequency=0.003 MHz, Alternating current cell with electrodes; for mass density: Vibrating tube method; for surface tension liquid-gas: Maximal bubble pressure

CCCCCCCCCCCCOS(=O)(=O)[O-].[Na+] [sodium dodecyl sulfate] + O
Conditions | electrical conductivity, 298.15 K [S/m] | electrical conductivity, 303.15 K [S/m] | electrical conductivity, 308.15 K [S/m] | electrical conductivity, 313.15 K [S/m] | mass density, 298.15 K [kg/m3] | mass density, 303.15 K [kg/m3] | mass density, 308.15 K [kg/m3] | mass density, 313.15 K [kg/m3]
m1 = 0.0005 | – | – | – | – | 994.78 ± 0.11 | 994.12 ± 0.11 | 993.69 ± 0.11 | 993.15 ± 0.11
m1 = 0.00086 | 0.000225 ± 1.4e-05 | 0.000289 ± 1.8e-05 | 0.000342 ± 2.2e-05 | 0.000403 ± 2.6e-05 | – | – | – | –
m1 = 0.00135 | 0.000346 ± 2.2e-05 | 0.000386 ± 2.5e-05 | 0.000457 ± 2.9e-05 | 0.000515 ± 3.3e-05 | – | – | – | –
m1 = 0.00161 | 0.000432 ± 2.8e-05 | 0.000497 ± 3.2e-05 | 0.000568 ± 3.6e-05 | 0.00063 ± 4e-05 | – | – | – | –
m1 = 0.00172 | 0.000542 ± 3.4e-05 | 0.000598 ± 3.8e-05 | 0.000663 ± 4.2e-05 | 0.000713 ± 4.5e-05 | – | – | – | –
m1 = 0.0023 | 0.000768 ± 4.9e-05 | 0.000813 ± 5.2e-05 | 0.00087 ± 5.5e-05 | 0.000946 ± 6e-05 | – | – | – | –
m1 = 0.00342 | 0.000984 ± 6.3e-05 | 0.00105 ± 6.7e-05 | 0.00113 ± 7.2e-05 | 0.0012 ± 7.7e-05 | – | – | – | –
m1 = 0.005 | 0.00144 ± 9.2e-05 | 0.0015 ± 9.6e-05 | 0.00159 ± 0.0001 | 0.00169 ± 0.00011 | – | – | – | –
m1 = 0.00681 | 0.00177 ± 0.00011 | 0.00193 ± 0.00012 | 0.00189 ± 0.00012 | 0.00207 ± 0.00013 | – | – | – | –
m1 = 0.0075 | 0.00203 ± 0.00013 | 0.00211 ± 0.00013 | 0.0022 ± 0.00014 | 0.00233 ± 0.00015 | – | – | – | –
m1 = 0.0108 | 0.00264 ± 0.00017 | 0.00269 ± 0.00017 | 0.00279 ± 0.00018 | 0.00295 ± 0.00019 | – | – | – | –
m1 = 0.01283 | 0.00293 ± 0.00019 | 0.00299 ± 0.00019 | 0.00305 ± 0.00019 | 0.00322 ± 0.0002 | – | – | – | –
m1 = 0.01582 | 0.00335 ± 0.00021 | 0.0034 ± 0.00022 | 0.00353 ± 0.00022 | 0.00373 ± 0.00024 | – | – | – | –
m1 = 0.01974 | 0.00392 ± 0.00025 | 0.00398 ± 0.00025 | 0.00412 ± 0.00026 | 0.00432 ± 0.00027 | – | – | – | –
m1 = 0.02351 | 0.00445 ± 0.00028 | 0.0044 ± 0.00028 | 0.00455 ± 0.00029 | 0.00468 ± 0.0003 | – | – | – | –
m1 = 0.02665 | 0.00483 ± 0.00031 | 0.00487 ± 0.00031 | 0.00487 ± 0.00031 | 0.00507 ± 0.00032 | – | – | – | –
m1 = 0.05 | – | – | – | – | 994.74 ± 0.11 | 994.19 ± 0.11 | 993.64 ± 0.11 | 993.11 ± 0.11

CCCCCCCCCCCCCCCCOCCOCCOCCOCCOCCOCCOCCOCCOCCOCCOCCOCCOCCOCCOCCOCCOCCOCCOCCOCCO + O
Conditions | mass density [kg/m3] | surface tension liquid-gas [mN/m]
298.15 K, m1 = 0.0005 | 995.7 ± 0.11 | –
298.15 K, m1 = 0.00199 | – | 68.7 ± 0.4
298.15 K, m1 = 0.00251 | – | 66 ± 0.4
298.15 K, m1 = 0.00316 | – | 64.2 ± 0.4
298.15 K, m1 = 0.00398 | – | 63.2 ± 0.4
298.15 K, m1 = 0.00501 | – | 61.3 ± 0.4
298.15 K, m1 = 0.00708 | – | 59.4 ± 0.4
298.15 K, m1 = 0.01 | – | 56.9 ± 0.4
298.15 K, m1 = 0.01413 | – | 55.3 ± 0.4
298.15 K, m1 = 0.02239 | – | 53.2 ± 0.4
298.15 K, m1 = 0.02818 | – | 52.4 ± 0.4
298.15 K, m1 = 0.03162 | – | 52.1 ± 0.4
298.15 K, m1 = 0.03981 | – | 52.1 ± 0.4
298.15 K, m1 = 0.05 | 997.07 ± 0.11 | –
298.15 K, m1 = 0.05012 | – | 51.9 ± 0.4
298.15 K, m1 = 0.0631 | – | 51.9 ± 0.4
303.15 K, m1 = 0.0005 | 995.58 ± 0.11 | –
303.15 K, m1 = 0.002 | – | 65.5 ± 0.4
303.15 K, m1 = 0.00251 | – | 64 ± 0.4
303.15 K, m1 = 0.00316 | – | 62.5 ± 0.4
303.15 K, m1 = 0.00398 | – | 61 ± 0.4
303.15 K, m1 = 0.00501 | – | 59.5 ± 0.4
303.15 K, m1 = 0.00708 | – | 57.5 ± 0.4
303.15 K, m1 = 0.01 | – | 55.8 ± 0.4
303.15 K, m1 = 0.01413 | – | 53 ± 0.4
303.15 K, m1 = 0.02239 | – | 51 ± 0.4
303.15 K, m1 = 0.02818 | – | 50.8 ± 0.4
303.15 K, m1 = 0.03162 | – | 50.7 ± 0.4
303.15 K, m1 = 0.03981 | – | 50.7 ± 0.4
303.15 K, m1 = 0.05 | 996.92 ± 0.11 | –
303.15 K, m1 = 0.05012 | – | 50.6 ± 0.4
303.15 K, m1 = 0.0631 | – | 50.6 ± 0.4
308.15 K, m1 = 0.0005 | 995.44 ± 0.11 | –
308.15 K, m1 = 0.002 | – | 63.1 ± 0.4
308.15 K, m1 = 0.00251 | – | 62.4 ± 0.4
308.15 K, m1 = 0.00316 | – | 60.2 ± 0.4
308.15 K, m1 = 0.00398 | – | 59.1 ± 0.4
308.15 K, m1 = 0.00501 | – | 57.1 ± 0.4
308.15 K, m1 = 0.00708 | – | 55.3 ± 0.4
308.15 K, m1 = 0.01 | – | 53.6 ± 0.4
308.15 K, m1 = 0.01429 | – | 51.2 ± 0.4
308.15 K, m1 = 0.02239 | – | 49.4 ± 0.4
308.15 K, m1 = 0.02818 | – | 48.8 ± 0.4
308.15 K, m1 = 0.03162 | – | 48.3 ± 0.4
308.15 K, m1 = 0.03981 | – | 48.3 ± 0.4
308.15 K, m1 = 0.05 | 996.78 ± 0.11 | –
308.15 K, m1 = 0.05012 | – | 48.3 ± 0.4
308.15 K, m1 = 0.0631 | – | 48.3 ± 0.4
313.15 K, m1 = 0.0005 | 995.3 ± 0.11 | –
313.15 K, m1 = 0.002 | – | 61.8 ± 0.4
313.15 K, m1 = 0.00251 | – | 60.2 ± 0.4
313.15 K, m1 = 0.00316 | – | 58.3 ± 0.4
313.15 K, m1 = 0.00398 | – | 57.1 ± 0.4
313.15 K, m1 = 0.00501 | – | 55.5 ± 0.4
313.15 K, m1 = 0.00708 | – | 53.6 ± 0.4
313.15 K, m1 = 0.01 | – | 51.7 ± 0.4
313.15 K, m1 = 0.01429 | – | 50 ± 0.4
313.15 K, m1 = 0.02239 | – | 47.7 ± 0.3
313.15 K, m1 = 0.02818 | – | 46.8 ± 0.3
313.15 K, m1 = 0.03162 | – | 46.5 ± 0.3
313.15 K, m1 = 0.03981 | – | 46.4 ± 0.3
313.15 K, m1 = 0.05 | 996.64 ± 0.11 | –
313.15 K, m1 = 0.05012 | – | 46.3 ± 0.3
313.15 K, m1 = 0.0631 | – | 46.3 ± 0.3

CCCCCCCCCCCCCCCC[n+]1ccccc1.[Br-] [1-hexadecylpyridinium bromide] + O
Conditions | electrical conductivity, 298.15 K [S/m] | electrical conductivity, 303.15 K [S/m] | electrical conductivity, 308.15 K [S/m] | electrical conductivity, 313.15 K [S/m] | mass density, 298.15 K [kg/m3] | mass density, 303.15 K [kg/m3] | mass density, 308.15 K [kg/m3] | mass density, 313.15 K [kg/m3]
m1 = 0.0005 | – | – | – | – | 996.54 ± 0.11 | 995.89 ± 0.11 | 995.18 ± 0.11 | 994.58 ± 0.11
m1 = 0.001 | 0.000196 ± 1.3e-05 | 0.000252 ± 1.6e-05 | 0.000326 ± 2.1e-05 | 0.000401 ± 2.6e-05 | – | – | – | –
m1 = 0.0015 | 0.000304 ± 1.9e-05 | 0.000359 ± 2.3e-05 | 0.000436 ± 2.8e-05 | 0.000536 ± 3.4e-05 | – | – | – | –
m1 = 0.0025 | 0.00044 ± 2.8e-05 | 0.000505 ± 3.2e-05 | 0.000566 ± 3.6e-05 | 0.000684 ± 4.4e-05 | – | – | – | –
m1 = 0.004 | 0.000742 ± 4.7e-05 | 0.000807 ± 5.1e-05 | 0.000884 ± 5.6e-05 | 0.00101 ± 6.4e-05 | – | – | – | –
m1 = 0.005 | 0.00105 ± 6.7e-05 | 0.0011 ± 7e-05 | 0.00109 ± 7e-05 | 0.00135 ± 8.6e-05 | – | – | – | –
m1 = 0.007 | 0.00135 ± 8.6e-05 | 0.00141 ± 8.9e-05 | 0.00148 ± 9.4e-05 | 0.00156 ± 9.9e-05 | – | – | – | –
m1 = 0.009 | 0.00174 ± 0.00011 | 0.0018 ± 0.00011 | 0.00187 ± 0.00012 | 0.00202 ± 0.00013 | – | – | – | –
m1 = 0.01 | 0.00192 ± 0.00012 | 0.00201 ± 0.00013 | 0.00206 ± 0.00013 | 0.00236 ± 0.00015 | – | – | – | –
m1 = 0.013 | 0.00236 ± 0.00015 | 0.00241 ± 0.00015 | 0.00247 ± 0.00016 | 0.00259 ± 0.00017 | – | – | – | –
m1 = 0.015 | 0.00263 ± 0.00017 | 0.00271 ± 0.00017 | 0.00276 ± 0.00018 | 0.00298 ± 0.00019 | – | – | – | –
m1 = 0.018 | 0.00313 ± 0.0002 | 0.0031 ± 0.0002 | 0.00318 ± 0.0002 | 0.00336 ± 0.00021 | – | – | – | –
m1 = 0.02 | 0.00345 ± 0.00022 | 0.0035 ± 0.00022 | 0.00349 ± 0.00022 | 0.00384 ± 0.00024 | – | – | – | –
m1 = 0.024 | 0.00403 ± 0.00026 | 0.00411 ± 0.00026 | 0.00416 ± 0.00026 | 0.00469 ± 0.0003 | – | – | – | –
m1 = 0.027 | 0.00443 ± 0.00028 | 0.00451 ± 0.00029 | 0.00458 ± 0.00029 | 0.00497 ± 0.00032 | – | – | – | –
m1 = 0.05 | – | – | – | – | 998.25 ± 0.11 | 997.33 ± 0.11 | 996.34 ± 0.11 | 995.46 ± 0.11
